Source: the supplement of paper PMC11451515

What was measured:
Details in all cases: 48 h
[1] = test system: P12-Ichikawa; assay: AUC of viability dose-response curve (% viability x log10 dose units); higher = less sensitive
How it was run: (§1)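 Leukemia cells adapted to each medium were seeded in 1536-well plates (500 or 1000 cells/well) and given library compounds in DMSO for 48 h at 37°C. The 11 threefold doses spanned 47 μM to 0.79 nM, and CellTiter-Glo One luminescence was normalised per plate to DMSO and cell-free wells before four-parameter log-logistic fitting on log10 dose. Area under the curve was integrated with the trapezoidal rule, scaling curves above full viability and removing curves that failed quality control.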

[2] = test system: NOMO1; assay: as above
How it was run: as §1

[3] = test system: SEM cells; assay: as above
How it was run: as §1

[4] = test system: P12-Ichikawa; assay: cell viability relative to DMSO control; higher = less cytotoxic
How it was run: (§2)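 Viability values are per-plate percentages of DMSO wells, with background from cell-free wells. Library compounds in DMSO were pin-dosed, in an 11-point threefold series from 47 μM to 0.79 nM, onto NOMO1 or SEM (500 cells/well) or P12-Ichikawa (1000 cells/well) leukemia cells in 1536-well plates (5 μl). Those cells had been adapted for at least four passages in each medium, and CellTiter-Glo One luminescence was read after 48 h at 37°C.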

[5] = test system: NOMO1; assay: as above
How it was run: as §2

[6] = test system: SEM cells; assay: as above
How it was run: as §2

NC(=O)[C@@H](CCC(F)(F)F)N(Cc1ccc(-c2ncon2)cc1F)[S+](=O)([O-])c1ccc(Cl)cc1
AUC of viability dose-response curve
Details	[1]	[2]	[3]
HPLM + 10% dialyzed FBS	430	436	430
RPMI 5 mM glucose + 10% FBS	421	413	381
RPMI 5 mM glucose + 10% dialyzed FBS	403	426	385

cell viability [%]
Details	[4]	[5]	[6]
HPLM + 10% dialyzed FBS, 0.000781 µM	105	107	96.6
HPLM + 10% dialyzed FBS, 0.00234 µM	98.7	106	106
HPLM + 10% dialyzed FBS, 0.00702 µM	98.7	113	102
HPLM + 10% dialyzed FBS, 0.0211 µM	103	108	106
HPLM + 10% dialyzed FBS, 0.0632 µM	92.4	109	103
HPLM + 10% dialyzed FBS, 0.19 µM	96.2	105	98.8
HPLM + 10% dialyzed FBS, 0.569 µM	96.1	97.5	81.4
HPLM + 10% dialyzed FBS, 1.71 µM	89.4	91.7	90.9
HPLM + 10% dialyzed FBS, 5.12 µM	87.1	96.3	91.5
HPLM + 10% dialyzed FBS, 15.4 µM	80	71	72.2
HPLM + 10% dialyzed FBS, 46.1 µM	5.81	3.05	4.51
RPMI 5 mM glucose + 10% FBS, 0.000781 µM	92.4	92.8	114
RPMI 5 mM glucose + 10% FBS, 0.00234 µM	95	103	108
RPMI 5 mM glucose + 10% FBS, 0.00702 µM	84.6	91.1	104
RPMI 5 mM glucose + 10% FBS, 0.0211 µM	101	90.6	114
RPMI 5 mM glucose + 10% FBS, 0.0632 µM	100	97.8	114
RPMI 5 mM glucose + 10% FBS, 0.19 µM	88.8	96.3	92.9
RPMI 5 mM glucose + 10% FBS, 0.569 µM	86.3	78.5	83.8
RPMI 5 mM glucose + 10% FBS, 1.71 µM	90.3	73.9	81.9
RPMI 5 mM glucose + 10% FBS, 5.12 µM	81.6	84.6	84.3
RPMI 5 mM glucose + 10% FBS, 15.4 µM	80.9	77.2	30
RPMI 5 mM glucose + 10% FBS, 46.1 µM	58	61	2.87
RPMI 5 mM glucose + 10% dialyzed FBS, 0.000781 µM	94.6	94.4	84.4
RPMI 5 mM glucose + 10% dialyzed FBS, 0.00234 µM	88.2	93	98.6
RPMI 5 mM glucose + 10% dialyzed FBS, 0.00702 µM	96.5	97.1	98.2
RPMI 5 mM glucose + 10% dialyzed FBS, 0.0211 µM	92.3	88.3	98.7
RPMI 5 mM glucose + 10% dialyzed FBS, 0.0632 µM	92.8	96.9	86.3
RPMI 5 mM glucose + 10% dialyzed FBS, 0.19 µM	87.3	105	88.6
RPMI 5 mM glucose + 10% dialyzed FBS, 0.569 µM	81.7	87	95.8
RPMI 5 mM glucose + 10% dialyzed FBS, 1.71 µM	84.8	83.2	79.5
RPMI 5 mM glucose + 10% dialyzed FBS, 5.12 µM	83.8	88.5	70.9
RPMI 5 mM glucose + 10% dialyzed FBS, 15.4 µM	84.2	81.6	52.3
RPMI 5 mM glucose + 10% dialyzed FBS, 46.1 µM	6.79	50.2	2.93

COC(=O)[C@@H]1CC2=CC(=O)CC[C@]2(C)[C@@]23O[C@@H]2C[C@@]2(C)[C@@H](CC[C@@]24CCC(=O)O4)[C@H]13
AUC of viability dose-response curve
Details	[1]	[2]	[3]
HPLM + 10% dialyzed FBS	458	456	444
RPMI 5 mM glucose + 10% FBS	446	467	456
RPMI 5 mM glucose + 10% dialyzed FBS	451	450	421

cell viability [%]
Details	[4]	[5]	[6]
HPLM + 10% dialyzed FBS, 0.000781 µM	98.1	93.6	87.9
HPLM + 10% dialyzed FBS, 0.00234 µM	113	115	88.3
HPLM + 10% dialyzed FBS, 0.00702 µM	104	107	94.7
HPLM + 10% dialyzed FBS, 0.0211 µM	106	121	100
HPLM + 10% dialyzed FBS, 0.0632 µM	112	116	96.1
HPLM + 10% dialyzed FBS, 0.19 µM	117	133	121
HPLM + 10% dialyzed FBS, 0.569 µM	117	122	113
HPLM + 10% dialyzed FBS, 1.71 µM	115	136	115
HPLM + 10% dialyzed FBS, 5.12 µM	120	124	115
HPLM + 10% dialyzed FBS, 15.4 µM	121	123	102
HPLM + 10% dialyzed FBS, 46.1 µM	112	119	111
RPMI 5 mM glucose + 10% FBS, 0.000781 µM	107	95.3	105
RPMI 5 mM glucose + 10% FBS, 0.00234 µM	109	91.4	108
RPMI 5 mM glucose + 10% FBS, 0.00702 µM	112	112	113
RPMI 5 mM glucose + 10% FBS, 0.0211 µM	124	106	98.1
RPMI 5 mM glucose + 10% FBS, 0.0632 µM	123	104	116
RPMI 5 mM glucose + 10% FBS, 0.19 µM	122	110	115
RPMI 5 mM glucose + 10% FBS, 0.569 µM	123	116	97.4
RPMI 5 mM glucose + 10% FBS, 1.71 µM	127	105	114
RPMI 5 mM glucose + 10% FBS, 5.12 µM	130	109	122
RPMI 5 mM glucose + 10% FBS, 15.4 µM	135	102	106
RPMI 5 mM glucose + 10% FBS, 46.1 µM	128	112	121
RPMI 5 mM glucose + 10% dialyzed FBS, 0.000781 µM	100	105	87.5
RPMI 5 mM glucose + 10% dialyzed FBS, 0.00234 µM	117	121	93
RPMI 5 mM glucose + 10% dialyzed FBS, 0.00702 µM	115	113	112
RPMI 5 mM glucose + 10% dialyzed FBS, 0.0211 µM	112	121	101
RPMI 5 mM glucose + 10% dialyzed FBS, 0.0632 µM	112	110	113
RPMI 5 mM glucose + 10% dialyzed FBS, 0.19 µM	115	108	107
RPMI 5 mM glucose + 10% dialyzed FBS, 0.569 µM	118	123	119
RPMI 5 mM glucose + 10% dialyzed FBS, 1.71 µM	113	141	116
RPMI 5 mM glucose + 10% dialyzed FBS, 5.12 µM	117	125	122
RPMI 5 mM glucose + 10% dialyzed FBS, 15.4 µM	119	116	130
RPMI 5 mM glucose + 10% dialyzed FBS, 46.1 µM	126	120	125

Clc1ccc(C(Cn2ccnc2)OCc2ccsc2Cl)c(Cl)c1 (stereo unspecified)
AUC of viability dose-response curve
Details	[1]	[2]	[3]
HPLM + 10% dialyzed FBS	467	470	456
RPMI 5 mM glucose + 10% FBS	461	476	467
RPMI 5 mM glucose + 10% dialyzed FBS	464	457	463

cell viability [%]
Details	HPLM + 10% dialyzed FBS	RPMI 5 mM glucose + 10% FBS	RPMI 5 mM glucose + 10% dialyzed FBS
[5], 0.000781 µM	102	89.7	88
[5], 0.00234 µM	127	106	113
[5], 0.00702 µM	114	119	112
[5], 0.0211 µM	116	102	129
[5], 0.0632 µM	103	110	99
[5], 0.19 µM	98.8	102	122
[5], 0.569 µM	108	119	118
[5], 1.71 µM	113	105	113
[5], 5.12 µM	134	96.6	96.3
[5], 15.4 µM	117	111	100
[5], 46.1 µM	80.6	94.2	73.5
[6], 0.000781 µM	67.6	76.4	69.3
[6], 0.00234 µM	98.8	95.1	110
[6], 0.00702 µM	107	114	110
[6], 0.0211 µM	93.1	105	117
[6], 0.0632 µM	114	132	128
[6], 0.19 µM	110	121	124
[6], 0.569 µM	90.4	100	101
[6], 1.71 µM	111	122	109
[6], 5.12 µM	111	110	118
[6], 15.4 µM	114	112	105
[6], 46.1 µM	35.7	65.6	55.9
